The results in this text go back to patent publication US20080051454A1, “Compositions and methods for transient receptor potential vanilloid (TRPV) channel mediated treatments” (The Board of Trustees Operating Michigan State University, priority 2006, published 2008).

Assay [1] concerns mesenteric arteries. Put plainly: MethA-induced CGRP release from isolated mesenteric arteries (radioimmunoassay). Details: species or system rat. The settings on record: CAPZ 10 μM, MethA 10 μM; NS or HS. How it is done:
The arteries were dissected free of fat and connective tissues.
The preparations were incubated in a Krebs' solution of the following compositions (in mM): NaCl 119, NaHCO3 25, KH2PO4 1.2, MgSO4 1.5, CaCl2 2.5, KCl 4.7, and D-glucose 11. The Krebs' solution was maintained at 37 °C and gassed with 95% O2 and 5% CO2. After 1 h stabilization period, the arteries were transferred to another chamber containing 1 ml of Krebs' solution with the addition of 0.05% BSA and drugs. […] The tissues were removed after 20 min incubation, and the solutions were collected. At the end of the experiment, the tissues were blotted and weighted.
This antibody has 100% cross-reactivity with rat α-CGRP and 79% with rat β-CGRP. There is no cross-reactivity with rat amylin, calcitonin, somatostatin, or substance P.

The next assay has as its system WT and TRPV1−/− hearts. In words: SP and CGRP release from hearts subjected to PC (radioimmunoassay). Details: species or system mouse. The settings on record: CAPZ 10^−6 M; in WT but not TRPV1−/− hearts. How it is done:
Additional WT and TRPV1−/−hearts were treated the same as that of the PC group except that CAPZ (10^−6 M) was added to the solution. In the normal control group, WT and TRPV1−/−hearts were treated the same as that of the PC group except no deprivation of oxygen and glucose. The samples were purified and analyzed by radioimmunoassay. The assay was performed as recommended by the supplier. Commercially available rat CGRP and SP radioimmunoassay kits (Peninsula Laboratories Inc.) were used for determination of SP and CGRP release which was normalized by the heart weight.

The subject of the next assay is renal tissues. In words: Capsaicin-induced CGRP release from renal tissues. The arrangement: species or system rat. The settings on record: capsazepine 10 mmol/l; all groups. The text has this: N¼5,_P<0.05 versus vehicle, capsazepine plus capsaicin and capsazepine; †P<0.001 versus capsaicin of control rats with a normal sodium diet (Con-NS) and capsaicin of control rats with a high sodium diet (Con-HS). Vehicle; capsaicin; capsazepine and capsaicin; capsazepine.
To examine renal sensory nerve function, renal CGRP release after stimulation of the renal sensory nerves with capsaicin was examined.

In assay [2] the test system is mesenteric arteries. In words: NADA-induced CGRP release from isolated mesenteric arteries (radioimmunoassay). The arrangement: species or system rat. The settings on record: CAPZ 10 μM pretreatment, NADA 10 μM; NS or HS. The method, then: After an 1 h stabilization period, the arteries were transferred to another chamber containing 1 ml of Krebs's solution with the addition of 0.05% BSA and drugs including NADA (1 or 10 μM) or CAPZ (10 μM). The tissues were removed after 20 min incubation, and the solutions were collected and evaporated. […] At the end of the experiment, the tissues were blotted and weighted. […] The results are expressed as pg of milligram of tissues.
This antibody has 100% cross-reactivity with rat a-CGRP and 79% with β-CGRP. There is no cross-reactivity with rat amylin, calcitonin, somatostatin, or substance P. The assay was performed following the manufacturer's protocol.

The subject of assay [3] is Wistar rats fed a normal-salt (NS) or high-salt (HS) diet for 10 days. Put plainly: MAP and HR responses to i.v. bolus NADA with or without antagonists in conscious rats. In kind it is in vivo, rat. Conditions: for prolonged depressor effect of NADA (decrease in MAP) after antagonist: NADA 4 mg/kg after CAPZ 3 mg/kg, CGRP8-37 infusion or SR141716A 3 mg/kg. The text has this: In brief: Wistar rats were fed a normal (NS, 0.4%) or high (HS, 4%) sodium diet for 10 days, then artery and vein were cannulated for measurement of mean arterial pressure (MAP) or for injection of drugs and collection of plasma.
Animal Preparation: Male Wistar rats (7 weeks old, Charles River Laboratory, Wilmington, Mass.) were housed in the animal facility for 1 week before the experiment. Rats were grouped randomly and pair-fed a NS (0.4% of Na^+ by weight) or HS (4% of Na^+ by weight) diet for 10 days. The rat chow was purchased from Harlan Teklad Diets (Madison, Wis.). Drinking water was available ad libitum throughout the experiment. All protocols were in accordance with the National Institutes of Health Guidelines for the Care and Use of Laboratory Animals.
Surgical Preparation Rats were anesthetized with ketamine and xylazine (80 and 4 mg/kg intraperitoneally, respectively) for cannulation or with urethane (1.5 g/kg intraperitoneally) for capsaicin administration. The left jugular vein, carotid and femoral artery were cannulated under anesthesia for injection of drugs or monitoring of mean arterial pressure (MAP) and heart rate (HR).
Three hours after surgery, baseline MAP and its response to the above-mentioned drugs were obtained with the rats fully awake and unrestrained [Wang et al., Am J Physiol 2004; 287:H1868-H[874]. NADA was injected in increasing doses (1, 4, and 10 mg/kg intravenous bolus) in 3 subgroups of rats (each group for each dose). To determine the role of TRPV1 and CB 1 receptor in NADA-induced hypotension, NADA (4 mg/kg) was injected 10 minutes or 20 minutes after intravenous injection of CAPZ (3 mg/kg) or SR141716A (3 mg/kg), respectively.
To examine the effect of CGRP8-37 on NADA-induced hypotension, CGRP8-37 was intravenously administered at the rate of 1 mg/kg/min for 2 minutes followed by injection at the rate of 0.5 mg/kg/min for 15 minutes. NADA (4 mg/kg) was injected 1 minute after CGRPs-37 administration. The effectiveness of the dose and time frame for CGRP8-37 injection was verified by blockade of the hypotensive response to capsaicin (30 μg/kg) (n=5).

On to `Oc1cc2c(cc1O)CN(C(=S)NCCc1ccc(Cl)cc1)CCC2` [CAPZ, N-[2-(4-Chlorophenyl)ethyl]-1,3,4,5-tetrahydro-7,8-dihydroxy-2H-2-benzazepine-2-carbothioamide], for which the “effect on MethA-induced CGRP release” value with mesenteric arteries [1] was “blocked”. Moreover, in the assay with WT and TRPV1−/− hearts, the “CGRP release from hearts subjected to PC” value is given as “attenuated” and the “SP release from hearts subjected to PC” value is given as “attenuated”. The “effect on capsaicin-stimulated CGRP release” value with renal tissues is “blocked”. The “effect on NADA-induced CGRP release” value in the assay with mesenteric arteries [2] is reported as “blocked”. In assay [3] (NADA 4 mg/kg), the “effect of antagonist on NADA-induced depressor effect” value was “abolished”. For the same compound, the “prolonged depressor effect of NADA (decrease in MAP) after antagonist” value in assay [3] (HS diet) came out at 7±2 mmHg. Also, in assay [3] (NS diet), the “prolonged depressor effect of NADA (decrease in MAP) after antagonist” value is on record as 6±2 mmHg.
